How the values were obtained:
Type in all cases: physicochemical
[1] = Stability of calcitriol in ethanol (HPLC assay against a reference substance); conditions: for Measured concentration of calcitriol in % relative to T0: 30 ppm in absolute ethanol, 0.02% BHT
Source text: (§1) Calcitriol stability data were generated in various excipients, including ethanol 100, an ethanol 100 (75%)/cyclomethicone 5 (25%) mixture, or oils such as Miglyol 812 and Cetiol SN. • a) Stability of Calcitriol in Ethanol: Solution of 30 ppm of calcitriol in qsp 100% of absolute ethanol, in the presence of 0.02% of BHT. Technique of HPLC assay against a reference substance. At the starting time (T0) the composition is considered to comprise 100% of calcitriol. Measured concentration of calcitriol in % relative to T0: […]

[2] = Stability of calcitriol in ethanol/cyclopentasiloxane (HPLC assay against a reference substance); conditions: for Measured concentration of calcitriol in % relative to T0: 30 ppm in 75% absolute ethanol + 25% cyclopentasiloxane, 0.02% BHT
Source text: as §1, with “Ethanol: b) Stability of Calcitriol in Ethanol/Cyclopentasiloxane:” for “Ethanol:”, “qsp 75%” for “qsp 100%”, “absolute ethanol+25% of cyclopentasiloxane,” for “absolute ethanol,”

[3] = Stability of calcitriol in Miglyol 812 (caprylic/capric triglycerides) (HPLC assay); conditions: for Measured concentration of calcitriol in % relative to T0: 30 ppm in Miglyol 812, 0.4% BHT
Source text: as §1, with “Ethanol: c) Stability of Calcitriol in Miglyol 812 (Caprylic/Capric Triglycerides):” for “Ethanol:”, “Miglyol 812,” for “absolute ethanol,”, “0.4%” for “0.02%”

[4] = Stability of calcitriol in Cetiol SN (cetearyl isononanoate) (HPLC assay); conditions: for Measured concentration of calcitriol in % relative to T0: 30 ppm in Cetiol SN, 0.4% BHT
Source text: as §1, with “Ethanol: d) Stability of Calcitriol in Cetiol SN (Cetearyl Isononanoate):” for “Ethanol:”, “Cetiol SN (cetearyl isononanoate),” for “absolute ethanol,”, “0.4%” for “0.02%”

Measured concentration of calcitriol in % relative to T0 ([1]; +4° C., T 1 week): 97.7%
Measured concentration of calcitriol in % relative to T0 ([1]; +4° C., T 2 weeks): 98.6%
Measured concentration of calcitriol in % relative to T0 ([1]; +4° C., T 3 weeks): 98.1%
Measured concentration of calcitriol in % relative to T0 ([1]; +4° C., T 4 weeks): 97.7%
Measured concentration of calcitriol in % relative to T0 ([1]; +30° C., T 2 weeks): 93.4%
Measured concentration of calcitriol in % relative to T0 ([1]; +30° C., T 4 weeks): 93.0%
Measured concentration of calcitriol in % relative to T0 ([1]; −18° C., T 1 week): 100.9%
Measured concentration of calcitriol in % relative to T0 ([1]; −18° C., T 2 weeks): 100.5%
Measured concentration of calcitriol in % relative to T0 ([1]; −18° C., T 3 weeks): 99.5%
Measured concentration of calcitriol in % relative to T0 ([1]; −18° C., T 4 weeks): 99.5%
Stability of calcitriol (in words) ([1]; in ethanol): good stability
Measured concentration of calcitriol in % relative to T0 ([2]; +4° C., T 2 weeks): 99.2%
Measured concentration of calcitriol in % relative to T0 ([2]; +4° C., T 3 weeks): 99.6%
Measured concentration of calcitriol in % relative to T0 ([2]; +4° C., T 4 weeks): 97.5%
Measured concentration of calcitriol in % relative to T0 ([2]; +30° C., T 2 weeks): 93.8%
Measured concentration of calcitriol in % relative to T0 ([2]; +30° C., T 4 weeks): 93.3%
Measured concentration of calcitriol in % relative to T0 ([2]; −18° C., T 2 weeks): 100.4%
Measured concentration of calcitriol in % relative to T0 ([2]; −18° C., T 3 weeks): 101.3%
Measured concentration of calcitriol in % relative to T0 ([2]; −18° C., T 4 weeks): 99.2%
Stability of calcitriol (in words) ([2]; in an ethanol/cyclopentasiloxane mixture): good stability
Measured concentration of calcitriol in % relative to T0 ([3]; +4° C., T 2 weeks): 98.3%
Measured concentration of calcitriol in % relative to T0 ([3]; +4° C., T 4 weeks): 105.2%
Measured concentration of calcitriol in % relative to T0 ([3]; +40° C., T 2 weeks): 91%
Measured concentration of calcitriol in % relative to T0 ([3]; +40° C., T 4 weeks): 93.8%
Measured concentration of calcitriol in % relative to T0 ([3]; RT, T 2 weeks): 95.1%
Measured concentration of calcitriol in % relative to T0 ([3]; RT, T 4 weeks): 98.0%
Stability of calcitriol (in words) ([3]; in Miglyol 812): good stability
Measured concentration of calcitriol in % relative to T0 ([4]; +4° C., T 2 weeks): 98.6%
Measured concentration of calcitriol in % relative to T0 ([4]; +4° C., T 4 weeks): 98.1%
Measured concentration of calcitriol in % relative to T0 ([4]; +40° C., T 2 weeks): 99.0%
Measured concentration of calcitriol in % relative to T0 ([4]; +40° C., T 4 weeks): 98.9%
Measured concentration of calcitriol in % relative to T0 ([4]; RT, T 2 weeks): 98.7%
Measured concentration of calcitriol in % relative to T0 ([4]; RT, T 4 weeks): 98.4%
Stability of calcitriol (in words) ([4]; in Cetiol SN): good stability
SMILES: C=C1/C(=C\C=C2/CCC[C@]3(C)[C@@H]([C@H](C)CCCC(C)(C)O)CC[C@@H]23)C[C@@H](O)C[C@@H]1O [calcitriol]

From US20050281750A1, “Sprayable compositions comprising a combination of pharmaceutical active agents, an alcohol phase, at least one volatile silicone and a non-volatile oily phase” (GALDERMA S.A., priority 2004, published 2005)
